Reference: a melting point compilation (Tetko et al.; mined from patent text by program, amines drawn as free bases though some values may be those of a salt)

| melting point [°C] | SMILES |
| --- | --- |
| 149 | CC1(C)OC(=O)N(C(=O)/C=C/c2ccccc2)[C@@H]1c1ccccc1 |
| 118 to 119 | CS(=O)(=O)c1ccc(C(Cc2ccccc2)C(=O)Nc2nc3ccccc3o2)cc1 (stereo unspecified) |
| 168 | CCCC(c1ccc(C(=O)Nc2ccccc2)cc1OCc1ccc(Br)cc1)n1ccnc1 (stereo unspecified) |
| 181 to 182 | O=C(C=Cc1ccc2c(c1)OCO2)C1C(=O)CCC1=O |
| 124 to 125 | CCSc1cc2c(cc1OC)CCn1c-2cc2c1C(=O)N(C(C)(C)C)CCCC2 |
| 248 to 249 | CCCOc1ccc(/C=C/c2nc3c([nH]2)c(=O)n(CCC)c(=O)n3CCC)cc1 |
| 44 to 46 | CCC(CC)N1C(=O)CCc2c1cc(C)nc2Nc1c(C)cc(C)cc1C |
| 140 to 142 | CCOC(=O)C1=C(C)N(C(C)=O)C(c2csc(C)n2)=NC1c1ccc(F)cc1 (stereo unspecified) |
| 263 to 265 | CC(C)Cn1cnc2c(N)nc3cccc(-c4ccccc4)c3c21 |
| 54 | CC(C)Oc1ccc(Cc2nn(-c3ccccc3Cl)c(=O)o2)cc1 |
| 257 to 258 | CC1CCn2c(c(-c3ccccc3)c3cccnc3c2=O)C(=O)N(Cc2cc(C(F)(F)F)cc(C(F)(F)F)c2)C1 (racemic) |
| 95 to 96 | CN(C)CCCCOc1ccc2c(=O)cc(-c3ccccc3)oc2c1 |
| 135 to 137 | COc1cc2nc(N3CCc4ccc([N+](=O)[O-])cc4C3)nc(N)c2cc1OC |
| 89 to 90 | CC(=O)c1cc(-c2cccc(Cl)c2)ccc1N |
| 45 to 46 | Cc1ccc(S(=O)(=O)OCC2CCC=CO2)cc1 (stereo unspecified) |
| > 300 | O=C1Nc2cc(NC(=O)c3c[nH]cc(-c4cccc(Cl)c4)c3=O)ccc2/C1=C/c1ccc[nH]1 |
| 236 to 238 | O=C(c1cn(-c2ccccc2)nc1-c1ccc([N+](=O)[O-])o1)N1CCCC1 |
| 193 to 194 | Cc1cc2nc(-c3cc(C(F)(F)F)nn3-c3ccc(S(C)(=O)=O)cc3)sc2cc1F |
| 48 to 50 | COc1ccnc(C(=O)N[C@H]2COC(=O)[C@H](CCOC(=O)c3ccccc3)[C@@H](OC(=O)C(C)C)[C@H](C)OC2=O)c1OCOC(=O)C(C)C |
| 133 to 134 | CS(=O)(=O)c1ccc(-c2sc(-c3ccccc3Cl)nc2-c2ccc(F)cc2)cc1 |
| 71 | CCOC(=O)C=Cc1ccc(C#N)cc1 |
| 251 to 253 | O=C(CC(=O)C(F)(F)F)Nc1cc(-c2ccsc2)n[nH]1 |
| 231 to 234 | O=C(O)c1ccc(CNS(=O)(=O)c2ccc(F)cc2)cc1 |
| 152 to 154 | O=C1N(Cc2ncccc2C(F)(F)F)c2ccccc2C12COc1cc3[nH]ncc3cc12 (stereo unspecified) |
| 227 to 228 | CC(C)(C)c1cc(C2SC(CC(=O)O)C(=O)N2CCCO)cc(C(C)(C)C)c1O (stereo unspecified) |
| 228 to 229 | CCN1c2ncc(C#Cc3ccccc3)cc2C(=O)N(C)c2cccnc21 |

| melting point [°C] | SMILES |
| --- | --- |
| 134 to 138 | C[C@@H](CO)COc1ccc(-c2ccc(Cl)nn2)cc1 |
| 243 to 244 | O=C(Nc1ccncc1)c1c(OCC2CC2)ccc2oc3ccccc3c12 |
| 59 to 61 | COC(=O)c1ccc(-n2ccc(C)n2)cc1C(F)(F)F |
| 139 | CCC1(c2cccc(OCc3ccc4c(ccc(=O)n4C)c3)c2)CCOCC1 |
| 98 | CC(C)(C)c1nn(-c2ccc([N+](=O)[O-])cc2Cl)c(=O)o1 |
| 235 to 237 | CSC1C(=O)CC2C3CCC4=CC(=O)C=CC4(C)C3(F)C(OC(C)=O)CC12C (stereo unspecified) |
| 207 to 209 | CCc1c(C)c(NC(=O)NC(C)(C)C)c(C)c2c1OCC2c1ccc(C(C)C)cc1 (stereo unspecified) |
| 134 to 139 | CCOC(=O)C1(Sc2ccccc2)Cc2ccc(N(C)C)cc2NC1=O (stereo unspecified) |
| 198 | O=C(O)c1ccccc1-c1ccccc1CN1C(=O)c2ccccc2C1=O |
| 325 to 327 | O=C(O)c1cn(C2CC2)c2nc(O)c(F)cc2c1=O |
| 155 to 156 | O=C(c1ccc(Cl)cc1)c1ccc(-n2ccnc2)nc1 |
| 139 to 141 | CNC(=O)N1CC(Oc2ccc(F)cc2Cl)C1 |
| 177 | O=C(Nc1ccc2cc(CN3CCCC3)cnc2c1)c1ccc(-c2ccc(Cl)cc2)cc1F |
| 110 | COC(=O)C1Oc2ccc(Cl)cc2C(Cc2ccccc2)(c2ccccc2)O1 (stereo unspecified) |
| 198 to 200 | COc1ccc(-c2cc3ccc(C)cc3s2)cc1 |
| 161 to 163 | CCOCc1nc2c(N)nc3ccccc3c2n1CC(C)(C)CS(=O)(=O)NC |
| 143 to 145 | CC(C)OC(=O)c1cc(-n2c(=O)[nH]cc(C#N)c2=O)c(F)cc1Cl |
| 247 | CC(C)c1ccc(N(Cc2cn[nH]c2)C(=O)C2CCCc3c(O)cccc32)cc1 (stereo unspecified) |
| 143 to 144 | CC(C)CC1(C(CCN2C(=O)c3ccc(F)cc3C2=O)C(=O)NO)CCN(CCc2ccccc2)C1=O (stereo unspecified) |
| > 300 | O=C1c2ccccc2-c2c1c(Cl)nc1cc(O)ccc21 |
| 102 to 103 | CCCCN(C(=O)CCc1ccc(OCCOC)cc1Oc1ncc(C(F)(F)F)cc1Cl)S(N)(=O)=O |
| 195 to 200 | CC(NC(=O)Cc1cc(F)cc(F)c1)C(=O)NC1C(=O)NCc2ccc(F)cc21 (stereo unspecified) |
| 145 to 148 | CS(=O)(=O)c1ccc(-n2cc(-c3ccc(Br)cc3)nc2-c2ccc(Cl)cc2)cc1 |
| 244 to 245 | CC(=O)Nc1cnc2c(NC(=O)c3c(Cl)cccc3Cl)cccc2c1 |
| 73 | COc1ccc2c(c1)CC(CC(C)=O)C2=O (racemic) |
| 180 | COC(=O)c1ccccc1S(=O)(=O)NC(=O)N1NC(=O)N(O)C1OC (stereo unspecified) |

More lines, now with the values behind:

| SMILES | melting point [°C] |
| --- | --- |
| COC(=O)c1ccccc1S(=O)(=O)NC(=O)Nc1ncccn1 | 188 to 192 |
| BrCCCCn1c2ccccc2c2ccccc21 | 102 to 104 |
| CC1CCC2(OC1)OC1CC3C4CCC5CC(O[Si](C)(C)C)CCC5(C)C4CCC3(C)C1C2C (stereo unspecified) | 197 to 198 |
| CCOCCn1c(C(=O)C2CCN(CCC3(c4ccccn4)CCN(C(=O)c4cc(OC)c(OC)c(OC)c4)C3)CC2)nc2ccccc21 (stereo unspecified) | 50 to 55 |
| CC1(C)C(=NOCc2ccccc2)C(c2ccccc2)=C1c1ccc(S(C)(=O)=O)cc1 | 119 to 121 |
| CC1=Nc2ccccc2C=C(c2ccccc2)N1C | 144 to 145 |
| CC(=Cc1ccc(O)c(Br)c1)[N+](=O)[O-] | 122 to 124 |
| OC1(c2ccc3c(c2)OCO3)CCNCC1 | 135 to 138 |
| OCC(O)(C(F)(F)F)C(F)(F)F | 47 |
| O=C1OC(CCCCN2CCN(c3ncccn3)CC2)CN1c1ccccc1 (stereo unspecified) | 94 to 96 |
| Cc1oc(-c2ccccc2)nc1CCc1nc(COc2cccc(CC(=O)O)c2)co1 | 127 to 128 |
| C#CCN(C(=O)c1ccco1)c1c(C)cccc1C | 113 |
| CC(CC1(c2ccc(Cl)cc2)CCC1)NC=O (stereo unspecified) | 71 to 73 |
| CSc1nn2c(-n3ccnc3)cc(C)nc2c1S(=O)(=O)c1ccccc1 | > 230 |
| CC(C)(C)c1ccc(CCCCN2CCC(C3(O)c4ccccc4CCc4ccccc43)CC2)cc1 | 99 to 101 |
| COC1=CCC(N)(O)C=C1 (stereo unspecified) | 138 to 140 |
| O=C1NCCNCCNCCNC(=O)c2cccc1n2 | 224 to 227 |
| O=C(Nc1cccc(OC(F)(F)F)c1)Nc1ccccc1CCO | 160 to 161 |
| CC(C)(C)NC(=O)c1nn(-c2cc(F)c(F)cc2F)c2c1C1CCC2C1 (stereo unspecified) | 127 to 130 |
| CC1(C)C(C=CC(=O)O)C1C(=O)OCc1ccccc1 (stereo unspecified) | 69 |
| Cc1cc(N=CN(C)C)c(C)cc1Cc1cccc(C(F)(F)F)c1 | 75 to 77 |
| C(=C1CCNCC1)c1ccc(C2=NCCO2)cc1 | 110 |
| CCOC(=O)CCNC(=O)N(CCCO)c1ccc(-c2ccc(C#N)cc2)cc1 | 102 to 104 |
| CCCCCCc1cc(C(=O)O)c(C)o1 | 59 to 60 |
| O=C1Nc2ccccc2N2CCN(Cc3ccncc3)CC12 (stereo unspecified) | 253 to 255 |

| SMILES | melting point [°C] |
| --- | --- |
| CC1=Nc2c(nc(N)[nH]c2=O)NC1C (stereo unspecified) | > 300 |
| CCc1oc(C(O)(C(F)(F)F)C(F)(F)F)nc1-c1ccc(S(C)(=O)=O)cc1 | 92 to 93 |
| CC(C)(O)C(O)c1ccc(C(=O)CCC(=O)/C(=C/C2CCOCC2)c2ccc(S(=O)(=O)C3CC3)cc2)nc1 (stereo unspecified) | 102 to 104 |
| CCOC(CNC1=Nc2sc(CC)cc2C(c2ccccc2Cl)=NC1)OCC | 124 to 127 |
| COc1ccc(C(=O)Nc2ccccc2C(O)Cc2ccccn2)cc1 (stereo unspecified) | 127 to 128 |
| CN1CCN(CCCNC(=S)NC2CCCCC2)CC1 | 109 to 111 |
| CNCCCCCCCCCCCO | 58 |
| COc1cccc2sc(-c3ccc(C(F)(F)F)cc3)nc12 | 104 |
| NN=C1c2ccccc2-c2ccc(F)cc21 | 161 to 165 |
| COc1cccc(COCc2cccc(OC)c2OC)c1OC | 58 to 60 |
| Cc1oc(-c2cccs2)nc1CCOc1ccc(N)cn1 | 120 to 122 |
| O=Cc1cc(I)ccc1O | 99 to 101 |
| CCCCNC(=O)[C@H](C)C[C@H](O)[C@H](CC1CCCCC1)NC(=O)[C@H](Cc1cscn1)NC(=O)[C@@H](CC(=O)N1CCOCC1)Cc1ccc(OC)cc1 | 130 to 132 |
| OC(CCN1CC=C(c2ccc(Cl)cc2)CC1)c1cccc2ccccc12 (stereo unspecified) | 122 to 123 |
| Oc1ccc(N=C2SCCS2)cc1 | 204 to 208 |
| CCCOC(=O)c1ccc(C#CC2(O)CN3CCC2CC3)cc1O (stereo unspecified) | 173 to 175 |
| O=S(=O)(CCCCl)c1ccc(Cl)cc1 | 69 to 72 |
| CCOC(=O)Cc1csc(Sc2ccc(OCc3nc(-c4ccccc4)oc3C)cc2)n1 | 95 to 96 |
| Cc1cc(C)cc(P(c2ccccc2)c2ccccc2)c1 | 67 to 69 |
| CCN1CCC2(c3cccc(O)c3)Cc3[nH]c(C(=O)N4CCCC4)c(C)c3CC2C1 (stereo unspecified) | 224 to 226 |
| Cc1nc(C(O)(c2nc(C)c(C)s2)C(C)(C)C)sc1C | 91 to 92 |
| Nc1ccc(NC(=S)NC2CCCCC2)cn1 | 147 to 149 |
| CCSc1ncnc2c(N3CCCCC3)nc(Cl)nc12 | 110 to 111 |
| NC(=O)Nc1cccc(CO)c1 | 188 to 202 |
